Data as given in PubChem BioAssay (NCI).
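Values below derive from 48-hour exposures of cells grown in 96-well plates, with endpoints linearly interpolated between the two concentrations bracketing the appropriate inhibition level. TGI denotes the concentration required for complete inhibition of growth.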

How the values were obtained:
Test in all cases: NCI-60 cell line screen, 48 h
SF-539 CNS = system: SF-539 CNS
COLO 205 colon = system: COLO 205 colon
MDA-MB-231 breast = system: MDA-MB-231 breast
SNB-19 CNS = system: SNB-19 CNS
HOP-92 NSCLC = system: HOP-92 NSCLC
HL-60(TB) leukemia = system: HL-60(TB) leukemia
OVCAR-5 ovarian = system: OVCAR-5 ovarian
UACC-62 melanoma = system: UACC-62 melanoma
ACHN renal = system: ACHN renal
UO-31 renal = system: UO-31 renal

SMILES | TGI (SF-539 CNS) [µM] | TGI (COLO 205 colon) [µM] | TGI (MDA-MB-231 breast) [µM] | TGI (SNB-19 CNS) [µM] | TGI (HOP-92 NSCLC) [µM] | TGI (HL-60(TB) leukemia) [µM] | TGI (OVCAR-5 ovarian) [µM] | TGI (UACC-62 melanoma) [µM] | TGI (ACHN renal) [µM] | TGI (UO-31 renal) [µM]
COc1cc(C2SC(N)=Nc3c2c(C)nn3C(=O)c2ccc(Cl)cc2)ccc1O (stereo not drawn) | > 10 | > 10 | > 10 | > 10 | > 10 | > 10 | > 10 | > 10 | > 10 | 
O=c1cc(-c2cccc(Br)c2)[nH]c2cc3c(cc12)OCO3 | 6.58 | > 100 | 23.1 | 10.3 |  | > 100 | > 100 | 4.83 | 24.4 | 37.9
COC(=O)c1ccccc1Nc1ccccc1C(=O)OC | > 100 | > 100 | > 100 | > 100 | 75.5 | > 100 | > 100 | > 100 | > 100 | 
Nc1nc2c(ncn2CC(CO)CC(c2ccccc2)P(=O)(O)O)c(=O)[nH]1 (stereo not drawn) | > 100 | > 100 |  | > 100 | > 100 | > 100 | > 100 | > 100 | > 100 | > 100
CC1(C)O[C@@H](CP(c2ccc3ccccc3c2)c2ccc3ccccc3c2)[C@H](CP(c2ccc3ccccc3c2)c2ccc3ccccc3c2)O1 |  | > 100 | > 100 | > 100 |  |  | > 100 | > 100 | > 100 | > 100
CCN1CCC(O)(/C=C/c2ccc(Cl)cc2)C(C(=O)/C=C/c2ccc(Cl)cc2)C1 (stereo not drawn) |  | > 100 |  | > 100 |  | > 100 | > 100 | 42.2 | > 100 | > 100
COC(=O)/C=C/N1CC1 | > 10 | 9.07 | > 10 | > 10 |  | > 10 | > 10 | > 10 | > 10 | 
OCC1(CNc2cc(Cl)ncn2)CCC1 | > 100 | > 100 | > 100 |  | > 100 | > 100 | > 100 |  | > 100 | > 100
NNC(=O)CSc1nnc(CCCCCCCCc2nnc(SCC(=O)NN)o2)o1 |  | > 100 | > 100 | > 100 | > 100 | > 100 | > 100 | > 100 | > 100 | > 100
Cc1cccc2c(=O)c3c(O)cc4c(c3n(C)c12)C=CC(C)(C)O4 | > 100 | > 100 | > 100 | > 100 | > 100 | > 100 | > 100 | > 100 | > 100 | 
CC(C)[Si](OC1=CCC[C@H]2NC(=O)[C@@H](Cc3ccc([N+](=O)[O-])cc3)[C@@]12C)(C(C)C)C(C)C | 5.41 | 17 | 28.1 | 25.9 |  | 24.4 | 21.2 | 27.7 | 4.28 | 26.4
